Test results taken from paper PMC5855688, “BC-Box Motif-Mediated Neuronal Differentiation of Somatic Stem Cells” (International Journal of Molecular Sciences, 2018).
“Also recorded” adds a separate entry of the source.

How the values were obtained:
[1] = tested on: skin-derived precursors (SKPs); test: Western blot analysis of neuronal markers in NDD peptide-treated cells; assay type: cell-based, rat (neonate Wistar); conditions: Figure 6A
Protocol: (§1) Rodent skin-derived precursor cells (SKPs), which can differentiate to neurons, were used. SKPs were previously isolated from the back dermis of neonate Wistar rats by the authors. These cells were cultured in growth medium composed of DMEM/F12 (1:1; Gibco, Grand Island, NY, USA) containing 2% B27 supplement (Gibco), 20 ng/mL epidermal growth factor (EGF; Upstate Biotechnology, Lake Placid, NY, USA), and 40 ng/mL bFGF (PeproTech EC Ltd., Rocky Hill, NJ, USA) in a humidified incubator at 37 °C with 5% CO2. The floating clusters of cultured cells were centrifuged and dissociated into a single-cell suspension by use of a Pasteur pipette with a flame-polished tip. These single cells were then re-suspended into at a concentration of 50,000 cells/mL for passage or experiments.
(§2) For neuronal differentiation, cells were dissociated into a single-cell suspension by use of a Pasteur pipette and re-suspended into a concentration of 50,000 cells/mL in DMEM/F12 without serum, neurotrophic factors or growth factors. Then, the cells were cultured on poly-L-lysine-coated dishes or cover glasses, and the synthesized peptides at concentrations from 1 to 5 μM were added to the culture medium and delivered into the cells. Three days or more later, the cells were used for morphological, immunocytochemical, immunohistochemical, electrophysiological and immunoprecipitation studies, as well as for Western blot analysis.
Cultured cells were washed 3 times in cold PBS and then scraped into ice-cold PBS. After incubation on ice for 10 min, the cells were lysed with lysis buffer and centrifuged, after which the supernatants were collected. Each sample was separated by SDS-PAGE under reducing conditions and transferred electrophoretically to nitrocellulose filters. Non-specific binding of antibody was blocked by incubation with 5% donkey serum for 1 h. Western blots were probed with anti-MAP2 antibody, anti-NFH antibody, anti-ChAT antibody, anti-GAD antibody, anti-rhodopsin antibody, anti-TH antibody, and anti-elongin C antibody (Santa Cruz, San Diego, CA, USA) followed by horseradish peroxidase-conjugated secondary antibodies. Protein bands were detected by using a chemical luminescence detection system (ECL Plus Western Blotting Reagent Pack, Amersham, Hemel Hempstead, UK). Images were analyzed with LAS-1000 (Fujifilm, Tokyo, Japan), and the density of the bands was determined by using Image Gauge software (Fujifilm).

[2] = tested on: skin-derived precursors (SKPs); test: Immunocytochemistry of neuronal markers in NDD peptide-treated cells; assay type: cell-based, rat (neonate Wistar); conditions: Figure 6B
Protocol: as §1, §2
Cultured cells were fixed with 4% paraformaldehyde in PBS (Phosphate buffered saline) for 10 min at room temperature. Cells were incubated for 1 h at room temperature with primary antibodies. Antibodies against anti-MAP2 antibody (Sigma-Aldrich, St. Louis, MO, USA), anti-Neurofilment-H (NFH) antibody (Sigma-Aldrich), anti-NeuN antibody (Merk Millipore, Billerica, MA, USA), anti-GFAP antibody (DAKO, Santa Clara, CA, USA), anti-tyrosine hydroxylase (TH) antibody (Merk Millipore, Billerica, MA, USA), anti-choline acetyl transferase (ChAT) antibody (Abbiotec, San Diego, CA, USA), anti-glutamic acid decaboxylase (GAD) antibody (Enzo Life Sciences, Flamingdale, NY, USA), and anti-rhodopsin antibody (Santa Cruz, San Diego, CA, USA) were used. After incubation with primary antibody, the cells were incubated for 1 h with secondary antibody, either rhodamine-conjugated anti-mouse IgG (Sigma-Aldrich) or FITC-conjugated anti-rabbit IgG (Sigma-Aldrich). Nuclear counterstaining was done with DAPI (Molecular Probes, Eugene, OR, USA) or TO-PRO-3 (Molecular Probes), and observations were made with a fluorescence microscope system (FV300, Olympus, Tokyo, Japan). We counted the number of immuno-positive cells with a given antibody in 4 to 6 random non-overlapping visual fields (50–200 cells per field) in each experiment. At least 2 experiments were performed per condition. The degree of positivity was expressed as the rate of immuno-positive cells to the total number of nuclei stained with DAP1 or TO-PRO-3.

[3] = tested on: rat brain; test: Immunohistochemistry (NeuN) of transplanted peptide-treated cells in rat brain; assay type: in vivo, rat (Wistar); conditions: 1 × 10^5 peptide-treated cells transplanted into rat brain, 6 weeks; mean ± SEM; vs VHL(157–171): p < 0.01 for VHL(157–168), p < 0.005 for TAT
Protocol: To evaluate neuronal differentiation of transplanted cells in rat brains, immunohistochemical study was performed as described previously. Before grafting, cells were preincubated with red fluorescence PKH26PCL (Sigma, St. Louis, MO, USA). […] Rats were anesthetized with isoflurane before surgery, and 1 × 10^5 cells were transplanted into rat brain. The rats were perfused with periodate-lysine-paraformaldehyde solution 6 weeks after the transplantation. Their brains were subsequently dissected and postfixed in the same medium for 2 h, cryopreserved in 30% sucrose for 12 h, and then embedded in Tissue Tek OCT compound (Sakura, Tokyo, Japan). Cryostat coronal sections of 14-μm thickness were prepared for immunohistochemistry. For immunostaining, sections were incubated with primary antibody, anti-NeuN antibody, and then incubated in secondary antibody, FITC-conjugated anti-rabbit IgG. Counterstaining was done with DAPI. In immohistochemistry, observations were made with a confocal immunofluorescence microscope (FV300, Olympus, Tokyo, Japan).
Wistar rats (Clea, Tokyo, Japan) were used in all experiments and housed in a temperature controlled room on a 12-h day/night cycle with free access to food and water. All animal experimental procedures were approved by the Institutional Animal Use Committee of Yokohama City University (ID 153, 1 April 2015) and were in accordance with National Institutes of Health guidelines for care and use of laboratory animals.

[4] = tested on: skin-derived precursors (SKPs); test: Neurite outgrowth / morphological evaluation of neuronal differentiation; assay type: cell-based, rat (neonate Wistar)
Protocol: as §1, §2
Neurite outgrowth with length exceeding the diameter of the neuronal soma is often assessed as a morphological index of neuronal differentiation. After a single-cell suspension was made by pipetting, the cells were cultured in DMEN/F12 medium alone at 37 °C in a 5% CO2 incubator. Thereafter, neurite outgrowth was evaluated with the following 4 levels: +++, for above 50% of the cells showing neurite outgrowth; ++, for 20–50% with neurite outgrowth; +, for 5–19% having neurite outgrowth; and −, for below 5% of the cells with neurite outgrowth.

Question: “YARAAARQARATLKERCLQVVRSLVK [VHL(157–171), NDD in pVHL: BC-box motif plus five amino acids, conjugated with PTD]” was tested. Which “Expression of ChAT” value ([1]; choline acetyltransferase) did it give?
Answer: The value was “high”.

Question: And the “Expression of TH” value ([1]; tyrosine hydroxylase)?
Answer: Its value is “moderate”.

Question: What about the “Rate of GAD-positive (GABAnergic neuron-like) cells” value [2] of the same sequence?
Answer: The value was “high rates of positive cells”.

Question: What about the “Rate of TH-positive (dopaminergic neuron-like) cells” value [2] of the same sequence?
Answer: The value was “high rates of positive cells”.

Question: What about the “Rate of rhodopsin-positive cells” value [2] of the same sequence?
Answer: The value was “high rates of positive cells”.

Question: And the “Positive rates of NeuN” value [3]?
Answer: Its value is 42.5 ± 4.5%.

Question: What about the “Neurite Outgrowth Activity” value ([4]; BC-box motif plus five C-terminal amino acids peptides, delivered with TAT PTD, 1 to 5 μM) of the same sequence?
Answer: Its value is “+++ (above 50% of the cells showing neurite outgrowth)”.

Question: And the Neurite Outgrowth Activity ([4]; Figure 2A, rates of cells having neurites, peptides at 1 to 5 μM, VHL157–168 vs VHL(157–171) p < 0.005)?
Answer: The Neurite Outgrowth Activity was “showed neurite outgrowth activity to the same extent as VHL(155–171); also recorded: greatest of rate of cells having neurites”.
